pEC50, pIC50: −log10 of the molar value. Entries after “also recorded” stand apart in the source; their conditions may differ. Read-outs that look alike come from different tables or passages of the source. One block for each compound: values may come before it.
Tests used:
HIV-1 (strain TC354) = experiment: Assay for anti-viral activity: HIV-1 (strain TC354) replication in PHA-stimulated cord blood mononuclear cells, reverse transcriptase activity; format: cell-based; conditions: read-out: effective concentration, inhibition of virus replication; for pEC50: Human immunodeficiency virus 1, 96 h
Method: Method: Target cells (PHA-stimulated cord blood mononuclear cells) were washed free of PHA and inoculated with HIV-1 (strain TC354) at a multiplicity of infection of 1, in the presence of 20 μg/ml DEAE-dextran for 30 mins. Cells were washed to remove unbound virus and residual DEAE-dextran. 10^5 cells were added to each well of 96 well plate, solutions of test compounds were added, each tested in triplicate. Dilutions were prepared in RPMI/1640. Tissue culture medium (RPMI/1640 buffer, 10% FCS, 20 U/ml […]) was added to a final volume of 200 μl. Reverse transcriptase activity was assayed four days post inoculation, RT activity >30 cpm was considered positive for HIV-1 replication.

HIV = experiment: Activity against HIV in cells / cell culture; format: cell-based
HIV-1 protease = HIV-1 protease (Human immunodeficiency virus type 1 group M subtype B, UniProt P03369); experiment: biochemical
Method: HIV-1 protease activity was measured at 37° C. using a continuous fluorimetric assay based on the method of Toth et al., (Toth et al., 1990, Int. J. Pept. Res. 36 544-550). The substrate, 2-aminobenzoyl-threonine-isoleucine-norleucine-(p-nitro)-phenylalanine-glutamine-arginine-NH2 (Abz-NF^* -6), was synthesised by solid phase peptide synthesis (Kent et al., 1991, In: Peptides 1990: Proceedings of the Twenty-First European Peptide Symposium (Girault, E. and Andrew, D. eds.) pp 172-173, ESCOM, Leiden). Enzyme activity was measured as the increase in fluorescence intensity upon substrate hydrolysis. The change in fluorescence intensity was monitored with a Perkin Elmer LS50B luminescence spectrometer fitted with a thermostatted micro cuvette holder. Measurements were carried out using an excitation wavelength of 320 nm (bandwith 5 nm) and an emission wavelength of […] (bandwith 5 nm).
Inhibition assays were routinely carried out at pH 6.5 and μ=0.1 M using a single substrate concentration. The assay mixtures contained 50 μM Abz-NF^* -6 in 100 mM 2-(N-morpholino)ethanesulphonate buffer, containing 10% (v/v) glycerol and 50 μg/ml bovine serum albumin, in a total final volume of 400 μl. Where inhibitors had to be dissolved in dimethyl sulphoxide or other organic solvents, the final concentration of solvent in the control and inhibition assays were kept absolutely constant because of the severe inhibitory effect of some solvents on the enzyme activity (Bergman et al., 1992, 17th Ann. Lorne Conf. on Protein Struct. and Funct. Abstr.). In all assays, the reaction was initiated by the addition of 10 μl of enzyme solution.

Structure (SMILES): CC(C)(C)NC(=O)[C@@H]1CCCCN1C[C@@H](O)[C@@H]1Cc2ccc(cc2)OCCCC(=O)N[C@@H](CC(N)=O)C(=O)N1 [Compound 44]
pEC50 (HIV-1 (strain TC354)): 6.00 | anti-viral activity, stated in words (HIV): poor inhibitor of viral replication in cells | pIC50 (HIV-1 protease): 7.80

pEC50 (HIV-1 (strain TC354); four days post inoculation): 7.00
Structure (SMILES): CC(C)CCN(C[C@@H](O)[C@@H]1Cc2ccc(cc2)OCCCCC(=O)N[C@@H](C(C)C)C(=O)N1)S(=O)(=O)c1ccccc1 [Compound 68]

EC50 (HIV-1 (strain TC354); four days post inoculation): 100000 nM | pIC50 (HIV; Human immunodeficiency virus 1, read-out: IC50, anti-viral activity against HIV in cell culture): > 6.00 | pIC50 (HIV-1 protease; Table 9, R isomer, read-out: IC50): 9.00
Structure (SMILES): CC[C@H](C)[C@@H]1NC(=O)[C@@H](NC[C@@H](O)[C@H](Cc2ccccc2)NC(=O)[C@@H](NC(=O)c2ccc3ccccc3n2)C(C)C)Cc2ccc(cc2)OCCCNC1=O [Compound 93]
protease inhibition, stated in words (HIV-1 protease): very potent inhibitor of HIV-1 protease; also recorded: equipotent as a protease inhibitor with the DuPont-Merck compound DM323
